Experimental data as given in patent US6900219B2, “ABCA-1 elevating compounds” (CV Therapeutics, Inc., priority 2002, dated 2005).

These compounds were tested on ABCA-1 gene (assay: compounds tested and found to elevate cellular expression of the ABCA-1 gene (Examples 1-6; test not named)).
Type: cell-based
Protocol: Activity testing is conducted as described in those patents and patent applications referenced above, and in the Examples below, and by methods apparent to one skilled in the art.
With `Cc1cccc(NC(=O)c2sc3ccccc3c2Cl)c1` [(3-chlorobenzo[b]thiophen-2-yl)-N-(3-methylphenyl)carboxamide] the “cellular expression of the ABCA-1 gene” value was “elevate cellular expression of the ABCA-1 gene”.
With `O=C(Nc1ccc2ccccc2c1)c1sc2ccccc2c1Cl` [(3-chlorobenzo[b]thiophen-2-yl)-N-(2-naphthyl)carboxamide] the “cellular expression of the ABCA-1 gene” value was “elevate cellular expression of the ABCA-1 gene”.
In the case of `CC(C)CN(C(=O)Nc1ccc(Cl)cc1)C(C)c1nc2ccccc2c(=O)n1-c1ccc2ccccc2c1` (centres unmarked) [[(4-chlorophenyl)amino]-N-(2-methylpropyl)-N-[(3-(2-naphthyl)-4-oxo(3-hydroquinazolin-2-yl))ethyl]carboxamide], the “cellular expression of the ABCA-1 gene” value is reported as “elevate cellular expression of the ABCA-1 gene”.
For `O=C(Nc1nc(-c2ccc(Cl)cc2)cs1)c1ccc(F)cc1F` [(2,4-difluorophenyl)-N-[4-(4-chlorophenyl)(1,3-thiazol-2-yl)]carboxamide], the “cellular expression of the ABCA-1 gene” value was “elevate cellular expression of the ABCA-1 gene”.
In the case of `CC(=O)c1ccc(NC(=O)Nc2cccc(Cl)c2)cc1` [N-(4-acetylphenyl)[(3-chlorophenyl)amino]carboxamide], the “cellular expression of the ABCA-1 gene” value is reported as “elevate cellular expression of the ABCA-1 gene”.
For `O=C(Nc1ccc(Br)cc1)c1sc2ccccc2c1Cl` [(3-chlorobenzo[b]thiophen-2-yl)-N-(4-bromophenyl)carboxamide], the “cellular expression of the ABCA-1 gene” value was “elevate cellular expression of the ABCA-1 gene”.
With `O=C(Nc1cccc(Cl)c1)Nc1ccc2c(c1)CCC2` [[(3-chlorophenyl)amino]-N-indan-5-ylcarboxamide] the “cellular expression of the ABCA-1 gene” value was “elevate cellular expression of the ABCA-1 gene”.
In the case of `O=C(Nc1ncc(-c2ccccc2)s1)c1ccc2ccccc2c1` [2-naphthyl-N-(5-phenyl(1,3-thiazol-2-yl))carboxamide], the “cellular expression of the ABCA-1 gene” value is reported as “elevate cellular expression of the ABCA-1 gene”.
With `COc1ccc(C(=O)NC2=NCCS2)cc1` [(4-methoxyphenyl)-N-(1,3-thiazolin-2-yl)carboxamide] the “cellular expression of the ABCA-1 gene” value was “elevate cellular expression of the ABCA-1 gene”.
With `Cc1cc(C)c2oc(-c3ccc(NC(=O)c4ccccc4Br)cc3)nc2c1` [N-[4-(5,7-dimethylbenzoxazol-2-yl)phenyl](2-bromophenyl)carboxamide] the “cellular expression of the ABCA-1 gene” value was “elevate cellular expression of the ABCA-1 gene”.
In the case of `Cc1c(C(=O)NCCc2ccccc2)cnn1-c1nc(-c2ccc(F)cc2)cs1` [{5-methyl-1-[4-(4-fluorophenyl)(1,3-thiazol-2-yl)]pyrazol-4-yl}-N-(2-phenylethyl)carboxamide], the “cellular expression of the ABCA-1 gene” value is reported as “elevate cellular expression of the ABCA-1 gene”.
With `CC(C)(C)NC(=O)Nc1nc2ccccc2s1` [N-benzothiazol-2-yl(tert-butylamino)carboxamide] the “cellular expression of the ABCA-1 gene” value was “elevate cellular expression of the ABCA-1 gene”.
For `O=C(Nc1nc2ccccc2s1)c1ccccn1` [N-benzothiazol-2-yl-2-pyridylcarboxamide], the “cellular expression of the ABCA-1 gene” value was “elevate cellular expression of the ABCA-1 gene”.
With `Cn1cccc1CN(CCc1ccccn1)C(=O)c1ccc(Cl)cc1` [(4-chlorophenyl)-N-[(1-methylpyrrol-2-yl)methyl]-N-(2-(2-pyridyl)ethyl)carboxamide] the “cellular expression of the ABCA-1 gene” value was “elevate cellular expression of the ABCA-1 gene”.
In the case of `CC(=O)Nc1ccc(N=Nc2ccccc2)cc1` [N-[4-(phenyldiazenyl)phenyl]acetamide], the “cellular expression of the ABCA-1 gene” value is reported as “elevate cellular expression of the ABCA-1 gene”.
For `COc1ccc(-c2nc3cc(/N=C/c4cccc([N+](=O)[O-])c4)ccc3o2)cc1` [1-{5-[(1E)-1-aza-2-(3-nitrophenyl)vinyl]benzoxazol-2-yl}-4-methoxybenzene], the “cellular expression of the ABCA-1 gene” value was “elevate cellular expression of the ABCA-1 gene”.
With `O=C(Nc1ncc(-c2ccccc2)s1)c1cccc(C(F)(F)F)c1` [N-(5-phenyl(1,3-thiazol-2-yl))[3-(trifluoromethyl)phenyl]carboxamide] the “cellular expression of the ABCA-1 gene” value was “elevate cellular expression of the ABCA-1 gene”.
`O=C(Nc1nc2c(Cl)cccc2s1)c1cc2ccccc2s1` [benzo[b]thiophen-2-yl-N-(4-chlorobenzothiazol-2-yl)carboxamide] was tested, and the “cellular expression of the ABCA-1 gene” value was “elevate cellular expression of the ABCA-1 gene”.
With `O=C(NC1=NCCS1)c1cccc(F)c1` [(3-fluorophenyl)-N-(1,3-thiazolin-2-yl)carboxamide] the “cellular expression of the ABCA-1 gene” value was “elevate cellular expression of the ABCA-1 gene”.
For `O=C(Nc1cccc(Cl)c1)Nc1ccc2c(c1)OCCO2` [(2H,3H-benzo[e]1,4-dioxin-6-ylamino)-N-(3-chlorophenyl)lcarboxamide], the “cellular expression of the ABCA-1 gene” value was “elevate cellular expression of the ABCA-1 gene”.
In the case of `O=C(Nc1nc(-c2ccc(Cl)cc2)cs1)c1ccc(OC(F)(F)F)cc1` [N-[4-(4-chlorophenyl)(1,3-thiazol-2-yl)][4-(trifluoromethoxy)phenyl]carboxamide], the “cellular expression of the ABCA-1 gene” value is reported as “elevate cellular expression of the ABCA-1 gene”.
With `O=C(Nc1cccc(O)c1)Nc1ccc(Cl)c(Cl)c1` [N-(3,4-dichlorophenyl)[(3-hydroxyphenyl)amino]carboxamide] the “cellular expression of the ABCA-1 gene” value was “elevate cellular expression of the ABCA-1 gene”.
`CCc1ccc(C(=O)N(CCc2ccccn2)Cc2ccccc2[N+](=O)[O-])cc1` [(4-ethylphenyl)-N-[(2-nitrophenyl)methyl]-N-(2-(2-pyridyl)ethyl)carboxamide] was tested, and the “cellular expression of the ABCA-1 gene” value was “elevate cellular expression of the ABCA-1 gene”.
For `COc1ccccc1NC(=O)N(CCc1ccccc1)C(C)c1nc2ccccc2c(=O)n1-c1ccc(Br)cc1` (centres unmarked) [1-{1-[3-(4-bromophenyl)-4-oxo-3,4-dihydro-quinazolin-2-yl]-ethyl}-3-(2-methoxy-phenyl-1-phenethylurea], the “cellular expression of the ABCA-1 gene” value was “elevate cellular expression of the ABCA-1 gene”.
For `CCOC(=O)CC(=O)CSc1nnc(NC(=O)c2ccc(Cl)cc2)s1` [ethyl 4-{5-[(4-chlorophenyl)carbonylamino](1,3,4-thiadiazol-2-ylthio)}-3-oxobutanoate], the “cellular expression of the ABCA-1 gene” value was “elevate cellular expression of the ABCA-1 gene”.
With `COc1ccc(C(=O)NC2=NC(C(=O)O)CS2)cc1` (centres unmarked) [2-[(4-methoxyphenyl)carbonylamino]-1,3-thiazoline-4-carboxylic acid] the “cellular expression of the ABCA-1 gene” value was “elevate cellular expression of the ABCA-1 gene”.
`Cc1ccc(C(=O)Nc2nc(-c3ccccc3)cs2)cc1C` [(3,4-dimethylphenyl)-N-(4-phenyl(1,3-thiazol-2-yl))carboxamide] was tested, and the “cellular expression of the ABCA-1 gene” value was “elevate cellular expression of the ABCA-1 gene”.
With `O=C(Nc1nc2c(Cl)cccc2s1)c1ccco1` [N-(4-chlorobenzothiazol-2-yl)-2-furylcarboxamide] the “cellular expression of the ABCA-1 gene” value was “elevate cellular expression of the ABCA-1 gene”.
With `O=c1oc(/C=C/c2ccc(Cl)cc2)nc2ccccc12` [2-[(1E)-2-(4-chlorophenyl)vinyl]benzo[d]1,3-oxazin-4-one] the “cellular expression of the ABCA-1 gene” value was “elevate cellular expression of the ABCA-1 gene”.
With `O=C(NCCc1ccccn1)c1ccc([N+](=O)[O-])cc1Cl` [(2-chloro-4-nitrophenyl)-N-(2-(2-pyridyl)ethyl)carboxamide] the “cellular expression of the ABCA-1 gene” value was “elevate cellular expression of the ABCA-1 gene”.
With `O=C(Nc1cccc(Cl)c1)Nc1ccccc1F` [N-(2-fluorophenyl)[(3-chlorophenyl)amino]carboxamide] the “cellular expression of the ABCA-1 gene” value was “elevate cellular expression of the ABCA-1 gene”.
In the case of `O=C(Nc1ccc(Br)cc1)c1ccc2ccccc2c1` [N-(4-bromophenyl)-2-naphthylcarboxamide], the “cellular expression of the ABCA-1 gene” value is reported as “elevate cellular expression of the ABCA-1 gene”.
`Cc1c(C(=O)NCc2ccccc2)cnn1-c1nc(-c2ccc(Cl)cc2)cs1` [{1-[4-(4-chlorophenyl)(1,3-thiazol-2-yl)]-5-methylpyrazol-4-yl}-N-benzylcarboxamide] was tested, and the “cellular expression of the ABCA-1 gene” value was “elevate cellular expression of the ABCA-1 gene”.
In the case of `CC(C)c1ccc(C(=O)NC2=NCCS2)cc1` [[4-(methylethyl)phenyl]-N-(1,3-thiazolin-2-yl)carboxamide], the “cellular expression of the ABCA-1 gene” value is reported as “elevate cellular expression of the ABCA-1 gene”.
In the case of `Cc1ccc2nc(-c3ccc(NC(=O)c4ccccc4C)cc3)sc2c1` [N-[4-(6-methylbenzothiazol-2-yl)phenyl](2-methylphenyl)carboxamide], the “cellular expression of the ABCA-1 gene” value is reported as “elevate cellular expression of the ABCA-1 gene”.
With `O=C(NC1=NCCS1)c1ccc(Cl)cc1` [(4-chlorophenyl)-N-(1,3-thiazolin-2-yl)carboxamide] the “cellular expression of the ABCA-1 gene” value was “elevate cellular expression of the ABCA-1 gene”.
With `COc1cccc(C(=O)NC2=NCCS2)c1` [(3-methoxyphenyl)-N-(1,3-thiazolin-2-yl)carboxamide] the “cellular expression of the ABCA-1 gene” value was “elevate cellular expression of the ABCA-1 gene”.
In the case of `O=C(Nc1nc2ccccc2s1)c1cnn(-c2ccc(Cl)cc2)c1C(F)(F)F` [N-benzothiazol-2-yl[1-(4-chlorophenyl)-5-(trifluoromethyl)pyrazol-4-yl]carboxamide], the “cellular expression of the ABCA-1 gene” value is reported as “elevate cellular expression of the ABCA-1 gene”.
For `CCOc1ccc2nc(NC(=O)NC(C)(C)C)sc2c1` [[t-butylamino]-N-(6-ethoxybenzothiazol-2-yl)carboxamide], the “cellular expression of the ABCA-1 gene” value was “elevate cellular expression of the ABCA-1 gene”.
For `O=C(Nc1ncc(-c2ccccc2)s1)c1ccno1` [isoxazol-5-yl-N-(5-phenyl(1,3-thiazol-2-yl))carboxamide], the “cellular expression of the ABCA-1 gene” value was “elevate cellular expression of the ABCA-1 gene”.
In the case of `Cc1ccc2nc(/C(C#N)=C/c3ccco3)[nH]c2c1` [(2E)-3-(2-furyl)-2-(5-methylbenzimidazol-2-yl)prop-2-enenitrile], the “cellular expression of the ABCA-1 gene” value is reported as “elevate cellular expression of the ABCA-1 gene”.
In the case of `COC(=O)c1ccc(C(=O)NC2=NCCS2)cc1` [methyl 4-(N-(1,3-thiazolin-2-yl)carbamoyl)benzoate], the “cellular expression of the ABCA-1 gene” value is reported as “elevate cellular expression of the ABCA-1 gene”.
`Cc1ccc(C(=O)NCCc2ccccn2)cc1` [(4-methylphenyl)-N-(2-(2-pyridyl)ethyl)carboxamide] was tested, and the “cellular expression of the ABCA-1 gene” value was “elevate cellular expression of the ABCA-1 gene”.
With `O=C(Nc1ncc(-c2ccccc2)s1)c1ccc(C(F)(F)F)cc1F` [[2-fluoro-4-(trifluoromethyl)phenyl]-N-(5-phenyl(1,3-thiazol-2-yl))carboxamide] the “cellular expression of the ABCA-1 gene” value was “elevate cellular expression of the ABCA-1 gene”.
